The values that follow come from patent US5324648A, “Substituted isocoumarins as serine protease inhibitors and anti-inflammatory agents” (Georgia Tech Research Corporation, priority 1992, dated 1994).

Structures are written as SMILES. Read-outs that look alike come from different tables or passages of the source.

Assay [1] deals with T1, porcine pancreatic elastase (PPE) (Sus scrofa, UniProt P00772).
T1 construct: from tissue; host or cells: porcine pancreas (from the name)
The assay is described as follows: Inactivation of porcine pancreatic elastase (PPE). The format is biochemical. The conditions noted are these: for kinact/KI: read-out: kobs/[I].

The next assay concerns the target chymotrypsin (Bos taurus, UniProt P00766). The assay is described as follows: Inactivation of chymotrypsin. Format: biochemical, bovine.
A further assay deals with T2, cathepsin G (Homo sapiens, UniProt P08311).
T2 construct: from tissue; host or cells: human leukocytes
T2 sequence (P08311 21-255): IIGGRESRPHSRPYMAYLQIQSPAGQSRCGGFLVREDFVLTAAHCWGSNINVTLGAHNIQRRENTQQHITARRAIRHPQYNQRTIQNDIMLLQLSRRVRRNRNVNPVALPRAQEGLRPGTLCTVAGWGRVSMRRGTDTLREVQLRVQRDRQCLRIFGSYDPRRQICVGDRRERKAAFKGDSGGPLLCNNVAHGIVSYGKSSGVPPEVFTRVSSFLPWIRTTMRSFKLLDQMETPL
Description: Inactivation of cathepsin G. The note with it: for percentage of inhibition: after 5 min incubation; for kinact/KI: read-out: kobs/[I]. The format is biochemical. Also on record: percentage of inhibition: concentration or dose not given beside the values.

Assay [2] concerns the target T3, human leukocyte elastase (HLE) (Homo sapiens, UniProt P08246).
T3 construct: from tissue; host or cells: human leukocytes (from the name)
T3 sequence (P08246 30-267): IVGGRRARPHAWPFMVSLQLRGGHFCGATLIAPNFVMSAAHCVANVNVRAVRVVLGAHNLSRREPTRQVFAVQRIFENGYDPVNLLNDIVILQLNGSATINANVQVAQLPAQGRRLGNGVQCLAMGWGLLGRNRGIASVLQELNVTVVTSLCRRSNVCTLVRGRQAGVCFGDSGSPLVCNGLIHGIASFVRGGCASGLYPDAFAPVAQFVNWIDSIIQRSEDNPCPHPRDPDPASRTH
Description: Inactivation of human leukocyte elastase (HLE). The format is biochemical.

The mark [3] stands for this setting: Table XVI, pH 7.5, 25° C, [I] 0.04-2.0 mM.
Setting [4] is: Table XVI, pH 7.5, 25° C, [I] 1.7-58 μM, read-out: kobs/[I].
Where [5] appears, read: pH 7.5, Table XVI, second order, equimolar inhibitor and enzyme, read-out: kobs/[I].
The mark [6] stands for this setting: Table XVI, pH 7.5, 25° C, [I] 35-710 μM.
The mark [7] stands for this setting: Table XVI, pH 7.5, 25° C, [I] 0.07-710 μM, read-out: kobs/[I].
[8] abbreviates: pH 7.5, Table XVI, biphasic plot, read-out: kobs/[I] (biphasic, first value).
The mark [9] stands for this setting: pH 7.5, Table XVI, biphasic plot, read-out: kobs/[I] (biphasic, second value).
[10] abbreviates: pH 7.5, Table XII, 2.5% Me2SO, 25° C, [I] 34-56 μM.
Setting [11] is: pH 7.5, Table XII, 2.5% Me2SO, 25° C, [I] 3.4-70 μM, read-out: kobs/[I].
Where [12] appears, read: pH 7.5, Table XII, 2.5% Me2SO, 25° C, [I] 8.7-87 μM.
Where [13] appears, read: pH 7.5, Table XII, 2.5% Me2SO, 25° C, [I] 0.7-1.9 μM, read-out: kobs/[I].

T1 sequence (P00772 27-266): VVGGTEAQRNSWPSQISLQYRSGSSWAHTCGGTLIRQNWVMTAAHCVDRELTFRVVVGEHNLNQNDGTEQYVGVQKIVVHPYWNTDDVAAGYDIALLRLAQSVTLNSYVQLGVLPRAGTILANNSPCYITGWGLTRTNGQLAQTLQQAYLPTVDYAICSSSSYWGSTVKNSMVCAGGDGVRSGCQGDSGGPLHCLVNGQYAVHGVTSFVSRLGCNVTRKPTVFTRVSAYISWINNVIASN
Description for cathepsin G: Inactivation rates of serine proteases by substituted isocoumarins were measured by the incubation method. An aliquot of inhibitor (25 or 50 μl) in Me2 SO was added to a buffered enzyme solution (0.01-2.3 μM) to initiate the inactivation. Aliquots (50 μl) were withdrawn at various intervals and the residual enzymatic activity was measured. Me2 SO concentration in the reaction mixture was 8-12% (v/v). 0.1 Hepes, 0.01M CaCl2, pH 7.5 buffer was utilized for trypsin and coagulation enzymes. 0.1M Hepes, 0.5M NaCl, pH 7.5 was utilized for other serine proteases. […] Peptide thioesters or peptide nitroanilides with appropriate sequence were used as substrates for various serine proteases. All peptide thioester hydrolysis rates were measured with assay mixtures containing 4,4'-dithiodipyridine (ε324 =19800M^-1 cm^-1 ; Grasetti & Murray, Arch. Biochem. Biophys. 119, pp 41-49 (1967)). Peptide 4-nitroanilide nitroanilide hydrolysis was measured at 410 nm (ε410 =8800M^-1 cm^-1 ; Erlanger et al., Arch. Biochem. Biophys. 95, pp 271-278 (1961)). First order inactivation rate constant (kobs) were obtained from plots of ln (vt /vo) vs time, and the correlation coefficients were greater than 0.98.
^a Inactivation rates were measured at 0.1M Hepes, 0.5 NaCl, pH 7.5,
8-12% Me2 SO and 25° C. by incubation method.
and assayed for remaining activity.
^a Inhibition rates were measured in 0.1M Hepes, 0.05M NaCl, pH 7.5
buffer, 8-9% Me2 SO and at 25° C.
Me2 SO, pH 7,5 and at 25° C.
^a Inhibition was measured in 0.1M Hepes, 0.5M NaCl, pH 7.5 buffer,
5-10% Me2 SO and at 25° C. Suc--Val--Pro--Phe--NA (0.48 mM)
was used as the substrate for chymotrypsin and cat G.

For the molecule `O=C(Nc1ccc2c(Cl)c(OCCBr)oc(=O)c2c1)Nc1cccc2ccccc12` [7-naphthylcarbamoylamino-4-chloro-3-(2-bromoethoxy)isocoumarin], the kinact/KI was 76 M⁻¹ s⁻¹ in assay [1] (setting [3]), 80 M⁻¹ s⁻¹ on chymotrypsin (setting [4]) and 390000 M⁻¹ s⁻¹ in assay [2] (setting [5]). This molecule also displayed a percentage of inhibition at cathepsin G (Table XVI) of 22%.

In the case of `CC(C)(C)CC(=O)Nc1ccc2c(Cl)c(OCCBr)oc(=O)c2c1` [7-t-butylacetylamino-4-chloro-3-(2-bromoethoxy)isocoumarin], the kinact/KI came to 3650 M⁻¹ s⁻¹ in assay [1] (setting [3]), 1070 M⁻¹ s⁻¹ on chymotrypsin (setting [4]) and 240 M⁻¹ s⁻¹ on cathepsin G (setting [6]).

As to `O=c1oc(OCCBr)c(Cl)c2ccc([N+](=O)[O-])cc12` [7-nitro-4-chloro-3-(2-bromoethoxy)isocoumarin], the kinact/KI in assay [1] (setting [3]) turned out to be 6330 M⁻¹ s⁻¹; on chymotrypsin (setting [5]), 98000 M⁻¹ s⁻¹; at cathepsin G (setting [6]), 710 M⁻¹ s⁻¹; in assay [2] (setting [7]), 65600 M⁻¹ s⁻¹.

Take `CC(C)NC(=O)Nc1ccc2c(Cl)c(OCCBr)oc(=O)c2c1` [7-isopropylcarbamoylamino-4-chloro-3-(2-bromoethoxy)isocoumarin]: the kinact/KI in assay [1] (setting [3]) was 4470 M⁻¹ s⁻¹; on chymotrypsin (setting [8]) it was 1340 M⁻¹ s⁻¹; at chymotrypsin (setting [9]), 380 M⁻¹ s⁻¹; on cathepsin G (setting [6]), 77 M⁻¹ s⁻¹; in assay [2] (setting [5]), 646000 M⁻¹ s⁻¹.

Take `Nc1ccc2c(Cl)c(OCCBr)oc(=O)c2c1` [7-amino-4-chloro-3-(2-bromoethoxy)isocoumarin]: the kinact/KI stood at 1000 M⁻¹ s⁻¹ in assay [1] (setting [3]); 1160 M⁻¹ s⁻¹ on chymotrypsin (setting [4]); 410 M⁻¹ s⁻¹ at cathepsin G (setting [6]); 200000 M⁻¹ s⁻¹ in assay [2] (pH 7.5, Table XVI, progress curve method, read-out: kobs/[I]).

With `O=C(Cc1ccccc1)Nc1ccc2c(Cl)c(OCCBr)oc(=O)c2c1` [7-phenylacetylamino-4-chloro-3-(2-bromoethoxy)isocoumarin], the kinact/KI in assay [1] (setting [3]) amounted to 4950 M⁻¹ s⁻¹; at chymotrypsin (setting [5]), 82000 M⁻¹ s⁻¹; at cathepsin G (setting [6]), 70 M⁻¹ s⁻¹; in assay [2] (setting [5]), 480000 M⁻¹ s⁻¹.

Regarding `CC(C)(C)OC(=O)N[C@H](Cc1ccccc1)C(=O)Nc1ccc2c(Cl)c(OCCBr)oc(=O)c2c1` [7-(N-t-butyloxycarbonyl-D-phenylalanyl)amino-4-chloro-3-(2-bromoethoxy)isocoumarin], the results for the kinact/KI (in assay [1] (setting [3]); on chymotrypsin (setting [4])) were 30 M⁻¹ s⁻¹ and 150 M⁻¹ s⁻¹, respectively. Further, the percentage of inhibition at cathepsin G (Table XVI) is 19%.

In the case of `O=C(Cc1ccccc1)Nc1ccc2c(Cl)c(OCCCBr)oc(=O)c2c1` [7-phenylacetylamino-4-chloro-3-(3-bromopropoxy)isocoumarin], the kinact/KI in assay [1] (setting [3]) turned out to be 28 M⁻¹ s⁻¹; at chymotrypsin (setting [5]) it was 140000 M⁻¹ s⁻¹; in assay [2] (setting [7]), 32400 M⁻¹ s⁻¹. Besides, the percentage of inhibition on cathepsin G (Table XVI) is 28%.

For `CC(CBr)Oc1oc(=O)c2cc([N+](=O)[O-])ccc2c1Cl` (stereo not shown) [7-nitro-4-chloro-3-(2-bromoisopropoxy)isocoumarin], the kinact/KI was found to be 1060 M⁻¹ s⁻¹ in assay [1] (setting [3]), 200000 M⁻¹ s⁻¹ at chymotrypsin (setting [5]) and 1660 M⁻¹ s⁻¹ on cathepsin G (setting [6]).

For `CC(C)(C)NC(=O)Nc1ccc2c(Cl)c(OCCBr)oc(=O)c2c1` [7-t-butylcarbamoylamino-4-chloro-3-(2-bromoethoxy)isocoumarin], the results for the kinact/KI (in assay [1] (setting [3]); at chymotrypsin (setting [4]); at cathepsin G (setting [6])) were 6600 M⁻¹ s⁻¹, 320 M⁻¹ s⁻¹ and 56 M⁻¹ s⁻¹, respectively.

On to `O=C(O)c1ccc(NC(=S)Nc2ccc3c(Cl)c(OCCBr)oc(=O)c3c2)cc1` [7-(p-carboxyphenyl)thiocarbamoylamino-4-chloro-3-(2-bromoethoxy)isocoumarin], for which the kinact/KI at chymotrypsin (setting [4]) is 1720 M⁻¹ s⁻¹; at cathepsin G (setting [6]), 450 M⁻¹ s⁻¹; in assay [2] (setting [5]), above 390000 M⁻¹ s⁻¹.

As to `CC(=O)Nc1ccc2c(Cl)c(OCCCBr)oc(=O)c2c1` [7-acetylamino-4-chloro-3-(3-bromopropoxy)isocoumarin], the kinact/KI was 24 M⁻¹ s⁻¹ in assay [1] (setting [3]), 3980 M⁻¹ s⁻¹ on chymotrypsin (setting [4]), 170 M⁻¹ s⁻¹ on cathepsin G (setting [6]) and 24400 M⁻¹ s⁻¹ in assay [2] (setting [7]).

Regarding `O=C(NCc1ccccc1)Nc1ccc2c(Cl)c(OCCCBr)oc(=O)c2c1` [7-benzylcarbamoylamino-4-chloro-3-(3-bromopropoxy)isocoumarin], the kinact/KI came out at 13 M⁻¹ s⁻¹ in assay [1] (setting [3]), 440 M⁻¹ s⁻¹ on chymotrypsin (setting [4]) and 15600 M⁻¹ s⁻¹ in assay [2] (setting [7]). On cathepsin G (Table XVI), this molecule yielded a percentage of inhibition of 21%.

With `C[C@H](NC(=O)OC(C)(C)C)C(=O)N[C@@H](C)C(=O)Nc1ccc2c(Cl)c(OCCBr)oc(=O)c2c1` [7-(N-t-butyloxycarbonyl-L-alanylalanyl)amino-4-chloro-3-(2-bromoethoxy)isocoumarin], the kinact/KI in assay [1] (setting [3]) was 1670 M⁻¹ s⁻¹; on chymotrypsin (setting [8]), 2750 M⁻¹ s⁻¹; at chymotrypsin (setting [9]), 810 M⁻¹ s⁻¹; on cathepsin G (setting [6]) it was 46 M⁻¹ s⁻¹; in assay [2] (setting [5]), 230000 M⁻¹ s⁻¹.

In the case of `O=C(NCc1ccccc1)Nc1ccc2c(Cl)c(OCCBr)oc(=O)c2c1` [7-benzylcarbamoylamino-4-chloro-3-(2-bromoethoxy)isocoumarin], the kinact/KI in assay [1] (setting [3]) was determined as 3010 M⁻¹ s⁻¹; on chymotrypsin (setting [4]), 890 M⁻¹ s⁻¹; in assay [2] (setting [5]), 480000 M⁻¹ s⁻¹. This molecule registered a percentage of inhibition at cathepsin G (Table XVI) of 23%.

`CCCOc1oc(=O)c2cc(NC(=O)CCc3ccccc3)ccc2c1Cl` [7-dihydrocinnamoylamino-4-chloro-3-propyloxyisocoumarin]: the kinact/KI in assay [1] (setting [10]) was 220 M⁻¹ s⁻¹; on chymotrypsin (setting [11]) it was 12000 M⁻¹ s⁻¹; on cathepsin G (setting [12]), 20 M⁻¹ s⁻¹; in assay [2] (setting [13]), above 250000 M⁻¹ s⁻¹.

On to `CCCOc1oc(=O)c2cc(NC(=O)OCC)ccc2c1Cl` [7-ethoxycarbonylamino-4-chloro-3-propyloxyisocoumarin], for which the kinact/KI in assay [1] (setting [10]) is 1600 M⁻¹ s⁻¹; on chymotrypsin (setting [11]) it was 5200 M⁻¹ s⁻¹; at cathepsin G (setting [12]), 138 M⁻¹ s⁻¹; in assay [2] (setting [13]) it was above 181000 M⁻¹ s⁻¹.

Turning to `C[C@@H](NC(=O)Nc1ccc2c(Cl)c(OCCBr)oc(=O)c2c1)c1ccccc1` [7-(R-α-methylbenzyl)carbamoylamino-4-chloro-3-(2-bromoethoxy)isocoumarin], the kinact/KI in assay [1] (setting [3]) is 9900 M⁻¹ s⁻¹; at chymotrypsin (setting [8]) it was 180 M⁻¹ s⁻¹; at chymotrypsin (setting [9]), 90 M⁻¹ s⁻¹; at cathepsin G (setting [6]), 77 M⁻¹ s⁻¹; in assay [2] (setting [5]), above 440000 M⁻¹ s⁻¹.

Regarding `O=C(Nc1ccccc1)Nc1ccc2c(Cl)c(OCCCBr)oc(=O)c2c1` [7-phenylcarbamoylamino-4-chloro-3-(3-bromopropoxy)isocoumarin], the kinact/KI is 4 M⁻¹ s⁻¹ in assay [1] (setting [3]), 180 M⁻¹ s⁻¹ on chymotrypsin (setting [4]), 13800 M⁻¹ s⁻¹ in assay [2] (setting [8]) and 2890 M⁻¹ s⁻¹ in assay [2] (setting [9]). Also, the percentage of inhibition on cathepsin G (Table XVI) was found to be 17%.

Regarding `CC(C)(C)OC(=O)N[C@@H](Cc1ccccc1)C(=O)Nc1ccc2c(Cl)c(OCCBr)oc(=O)c2c1` [7-(N-t-butyloxycarbonyl-L-phenylalanyl)amino-4-chloro-3-(2-bromoethoxy)isocoumarin], the kinact/KI in assay [1] (setting [3]) is 50 M⁻¹ s⁻¹; on chymotrypsin (setting [4]), 400 M⁻¹ s⁻¹. On cathepsin G (Table XVI), this molecule returned a percentage of inhibition of 19%.

In the case of `CCCOCCOc1oc(=O)c2cc(N)ccc2c1Cl`, the “kobs/[I]” value in assay [1] (setting [3]) worked out at 0.5 M⁻¹ s⁻¹; at chymotrypsin (Table XVI, pH 7.5, 25° C, [I] 1.7-58 μM), 140 M⁻¹ s⁻¹; on cathepsin G (setting [6]), 2.6 M⁻¹ s⁻¹; in assay [2] (Table XVI, pH 7.5, 25° C, [I] 0.07-710 μM), 33 M⁻¹ s⁻¹.

For the molecule `CCCOc1oc(=O)c2cc(N)ccc2c1Cl` [7-amino-4-chloro-3-propoxyisocoumarin], the kinact/KI in assay [1] (setting [3]) was 4.3 M⁻¹ s⁻¹; at chymotrypsin (setting [4]) it was 375 M⁻¹ s⁻¹; on cathepsin G (setting [6]) it was 61 M⁻¹ s⁻¹; in assay [2] (setting [7]), 390 M⁻¹ s⁻¹.

As to `Nc1ccc2c(Cl)c(OCCCBr)oc(=O)c2c1` [7-amino-4-chloro-3-(3-bromopropoxy)isocoumarin], the kinact/KI in assay [1] (setting [3]) was 10 M⁻¹ s⁻¹; at chymotrypsin (setting [4]), 790 M⁻¹ s⁻¹; at cathepsin G (setting [6]), 210 M⁻¹ s⁻¹; in assay [2] (setting [7]) it was 4000 M⁻¹ s⁻¹.

On to `CC(CBr)Oc1oc(=O)c2cc(N)ccc2c1Cl` (stereo not shown) [7-amino-4-chloro-3-(2-bromoisopropoxy)isocoumarin], for which the kinact/KI in assay [1] (setting [3]) turned out to be 62 M⁻¹ s⁻¹; on chymotrypsin (setting [4]) it was 320 M⁻¹ s⁻¹; on cathepsin G (setting [6]) it was 150 M⁻¹ s⁻¹; in assay [2] (setting [7]) it was 24000 M⁻¹ s⁻¹.

On to `O=C(O)c1cccc(NC(=S)Nc2ccc3c(Cl)c(OCCBr)oc(=O)c3c2)c1` [7-(m-carboxyphenyl)thiocarbamoylamino-4-chloro-3-(2-bromoethoxy)isocoumarin], for which the kinact/KI is 1960 M⁻¹ s⁻¹ on chymotrypsin (setting [4]), 320 M⁻¹ s⁻¹ on cathepsin G (setting [6]) and above 240000 M⁻¹ s⁻¹ in assay [2] (setting [5]).
